Patent publication US12342842B2, “Preparation for use in enhancing formation of short-chain fatty acids (SCFAs)” (Evonik Operations GmbH, priority 2019, dated 2025)

Tests used:
human colonic microbiota [1] = test: I-screen fermentation, SCFA analysis with omega-3 amino acid salts, FFA and amino acids (Examples 5 and 6); type: cell-based; conditions: salts 1.4 mg/ml; for Iso-butyrate / Iso-valerate: 24 h in SIEM, FFA 0.95 mg/ml, amino acids 0.5 mg/ml, means of triplicates; for Iso-butyrate: control 1.21; for Iso-valerate: control 2.74; for Propionate/acetate ratio / Propionate / Acetate: FFA 0.96 mg/ml, L-lysine 0.49, L-arginine 0.52, L-ornithine 0.5 mg/ml; for Propionate/acetate ratio: control 0.48; for Propionate: control 7.37; for Acetate: control 15.21
human colonic microbiota [2] = test: I-screen intestinal screening model, microbiota composition by V4 16S rRNA gene sequencing (Example 1); type: cell-based; conditions: omega-3-lys, EE, fish oil 1.4 mg/ml, inulin 4 mg/ml, means of triplicates
Description: To determine the effect of omega-3 compounds on adult colonic microbiota, an intestinal screening model was used (I-screen, TNO, the Netherlands), which corresponds to colonic environment. A translation of such in vitro experiment towards an application in a living organism (animal or human) requires the use of a colon-specific delivery form to circumvent absorption of fatty acids in upper parts of the gastrointestinal tract. The use of compositions comprising omega-3 compounds in formulations enabling a colon-specific delivery is part of the present invention. […]
The microbiota composition was analyzed by 16S rRNA gene amplicon sequencing of the V4 hypervariable region. […]
The amount of bacterial DNA in the i-screen DNA samples was determined by quantitative polymerase chain reaction (qPCR) using primers specific for the bacterial 16S rRNA gene: Forward primer: CGAAAGCGTGGGGAGCAAA; Reverse primer: GTTCGTACTCCCCAGGCGG; Probe: 6FAM-[…]-MGB.
Subsequently, PCR amplicons of the V4 hypervariable region of the 16S rRNA gene were generated for the individual samples by amplification of 500 pg of DNA as described by Kozich et al. (2013), using F515/R806 primers (Caporaso et al. 2011). […] The amount of amplified DNA per sample was quantified using the dsDNA 910 Reagent Kit on the Fragment Analyzer (Advanced Analytical). […]

Molecule: N=C(N)NCCC[C@H](N)C(=O)O [Arg, L-arginine]
- Iso-butyrate (human colonic microbiota [1]): 1.21 mM
- Iso-valerate (human colonic microbiota [1]): 3.71 mM
- Propionate/acetate ratio (human colonic microbiota [1]): 0.40
- Propionate (human colonic microbiota [1]): 9.39 mM
- Acetate (human colonic microbiota [1]): 23.50 mM

Molecule: NCCCC[C@H](N)C(=O)O [Lys, L-lysine]
- Iso-butyrate (human colonic microbiota [1]): 1.47 mM
- Iso-valerate (human colonic microbiota [1]): 3.57 mM
- Propionate/acetate ratio (human colonic microbiota [1]): 0.40
- Propionate (human colonic microbiota [1]): 9.49 mM
- Acetate (human colonic microbiota [1]): 24.03 mM

Molecule: NCCC[C@H](N)C(=O)O [Orn, L-ornithine]
- Iso-butyrate (human colonic microbiota [1]): 1.37 mM
- Iso-valerate (human colonic microbiota [1]): 3.31 mM
- Propionate/acetate ratio (human colonic microbiota [1]): 0.36
- Propionate (human colonic microbiota [1]): 9.11 mM
- Acetate (human colonic microbiota [1]): 25.36 mM

Molecule: inulin
- Effect on colonic microbiota after 24 h incubation (variance explained versus control) (human colonic microbiota [2]): 40.2%
